Assays:
[1] = molecular target: T1, YpHddC (Yersinia pseudotuberculosis, UniProt Q8GJ90)
T1 construct: gene hddC

[2] = molecular target: T1, YpHddC; remark: listed apart in the source

T1 sequence (Q8GJ90 1-225 limits assumed): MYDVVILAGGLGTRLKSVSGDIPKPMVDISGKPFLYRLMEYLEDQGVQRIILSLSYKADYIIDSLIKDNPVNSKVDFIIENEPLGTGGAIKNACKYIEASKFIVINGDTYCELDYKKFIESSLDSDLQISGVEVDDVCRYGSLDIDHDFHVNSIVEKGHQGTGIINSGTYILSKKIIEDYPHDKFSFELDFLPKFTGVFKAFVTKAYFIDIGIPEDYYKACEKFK

SMILES | X-ray crystal structure, 1.55 Å [1] | malachite green assay with pyrophosphatase [2]
Nc1nc2c(ncn2[C@@H]2O[C@H](COP(=O)(O)OP(N)(=O)O)[C@@H](O)[C@H]2O)c(=O)[nH]1 [GMPPN] | The extra densities were well matched with one magnesium, one GMPPN (Figure A1) | –
O=P(O)(O)O[C@H]1O[C@H](CO)[C@@H](O)[C@H](O)[C@@H]1O [αM1P] | – | we used α-D-Mannose-1-phosphate (αM1P) purchased from Sigma for a substrate
Nc1nc2c(ncn2[C@@H]2O[C@H](COP(=O)(O)OP(=O)(O)OP(=O)(O)O)[C@@H](O)[C@H]2O)c(=O)[nH]1 [GTP] | – | The main molecular property of YpHddC is its GTP preference
